Patent US20020052295A1, “Diacyl derivatives of propylene diamine having herbicidal activity” (priority 1999, published 2002)

Legend:
ECHCG [1] = test: Post-emergence herbicidal activity on ECHCG (barnyardgrass); type: in vivo, Echinochloa crus-galli; conditions: post-emergence spray; lowest tested rate with 80% or greater inhibition; about 14 days after treatment
Text: (§1) All such uses, and the biological activity enabling such uses, are embraced by the term “herbicidal” herein. Tables 15 and 16 summarize results of tests conducted as described below to determine the pre-emergence herbicidal activity, in the form of a GR80 value, of illustrative compounds of this invention. […] Where herbicidal activity was evident but 80% inhibition was not achieved at the highest rate tested (typically 1000 g/ha), an asterisk (*) is shown in the following tables. Herbicidal activity evident in the form of symptoms of phytotoxicity, in the absence of at least 80% inhibition at any rate, is indicated in the tables by “phyto”. A blank cell in the following tables indicates no herbicidal or phytotoxic response at any rate tested.
(§2) In another set of tests, the post-emergence activity of compounds of this invention was evaluated on the cool season species listed above. The following procedure was used.
(§3) A pre-prepared topsoil mixture (described above) was placed in a pot and compacted to a depth of 1.0 to 1.25 cm from the top of the pot. Seeds of each of several monocotyledonous and dicotyledonous annual plant species were placed on top of the soil The seeds were covered with a mixture of 50% topsoil and 50% Rediearth™ in sufficient quantity to level-fill the pots. The pots were then placed on a greenhouse bench and subirrigated as needed until plants growing from the seeds had emerged and reached a suitable growth stage for post-emergence treatment, typically 9 to 14 days after planting.
(§4) A known amount of each test compound dissolved or suspended in an appropriate organic solvent was diluted with a 50:50 mix of acetone and water and applied to the plants by spraying with a standard spray nozzle in a spray volume of 3,100 l/ha at a spray pressure of […] (30 psig). Control plants were not sprayed.
(§5) After treatment the plants were placed in a greenhouse with a 30/21° C. day/night temperature regime and were subsequently watered as needed for growth. Approximately 14 days after treatment, the plants were observed and herbicidal efficacy recorded as percent inhibition by comparison with control plants.

PANMI [2] = test: Post-emergence herbicidal activity on PANMI (wild proso millet); type: in vivo, Panicum miliaceum; conditions: post-emergence spray; lowest tested rate with 80% or greater inhibition; about 14 days after treatment
SORHA [3] = test: Post-emergence herbicidal activity on SORHA (johnsongrass, seedling); type: in vivo, Sorghum halepense; conditions: post-emergence spray; lowest tested rate with 80% or greater inhibition; about 14 days after treatment
Text: as §1, §2, §3, §4, §5

SETFA [4] = test: Post-emergence herbicidal activity on SETFA (giant foxtail); type: in vivo, Setaria faberi; conditions: post-emergence spray; lowest tested rate with 80% or greater inhibition; about 14 days after treatment
Text: as §1, §2, §3, §4, §5

PANDI [5] = test: Post-emergence herbicidal activity on PANDI (fall panicum); type: in vivo, Panicum dichotomiflorum; conditions: post-emergence spray; lowest tested rate with 80% or greater inhibition; about 14 days after treatment
Text: as §1, §2, §3, §4, §5

SORVU [6] = test: Post-emergence herbicidal activity on SORVU (shattercane); type: in vivo, Sorghum vulgare; conditions: post-emergence spray; lowest tested rate with 80% or greater inhibition; about 14 days after treatment
Text: as §1, §2, §3, §4, §5

BRAPP [7] = test: Post-emergence herbicidal activity on BRAPP (broadleaf signalgrass); type: in vivo, Brachiaria platyphylla; conditions: post-emergence spray; lowest tested rate with 80% or greater inhibition; about 14 days after treatment
Text: as §1, §2, §3, §4, §5

DIGSA [8] = test: Post-emergence herbicidal activity on DIGSA (large crabgrass); type: in vivo, Digitaria sanguinalis; conditions: post-emergence spray; lowest tested rate with 80% or greater inhibition; about 14 days after treatment
ABUTH = test: Pre-emergence herbicidal activity on ABUTH (velvetleaf); type: in vivo, Abutilon theophrasti; conditions: lowest tested rate giving 80% or greater inhibition, approx. 14 days after planting and treating, greenhouse
Outline: (§6)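 Steps: sterilized fertilized topsoil potted; seeds sown, covered; compound (50:50 acetone/water dilution) applied to soil surface; 0.64 cm overhead irrigation; greenhouse 30/21 °C day/night; % inhibition vs untreated scored at ~14 d; GR80 calculated.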

SOLNI = test: Pre-emergence herbicidal activity on SOLNI (black nightshade); type: in vivo, Solanum nigrum; conditions: lowest tested rate giving 80% or greater inhibition, approx. 14 days after planting and treating, greenhouse
Outline: as §6

AMARE = test: Pre-emergence herbicidal activity on AMARE (redroot pigweed); type: in vivo, Amaranthus retroflexus; conditions: lowest tested rate giving 80% or greater inhibition, approx. 14 days after planting and treating, greenhouse
Outline: as §6

DATST = test: Pre-emergence herbicidal activity on DATST (jimsonweed); type: in vivo, Datura stramonium; conditions: lowest tested rate giving 80% or greater inhibition, approx. 14 days after planting and treating, greenhouse
Outline: as §6

CHEAL = test: Pre-emergence herbicidal activity on CHEAL (common lambsquarters); type: in vivo, Chenopodium album; conditions: lowest tested rate giving 80% or greater inhibition, approx. 14 days after planting and treating, greenhouse
Outline: as §6

CONAR = test: Pre-emergence herbicidal activity on CONAR (field bindweed); type: in vivo, Convolvulus arvensis; conditions: lowest tested rate giving 80% or greater inhibition, approx. 14 days after planting and treating, greenhouse
Outline: as §6

POROL = test: Pre-emergence herbicidal activity on POROL (common purslane); type: in vivo, Portulaca oleracea; conditions: lowest tested rate giving 80% or greater inhibition, approx. 14 days after planting and treating, greenhouse
Outline: as §6

CIRAR = test: Pre-emergence herbicidal activity on CIRAR (canada thistle, seedling); type: in vivo, Cirsium arvense; conditions: lowest tested rate giving 80% or greater inhibition, approx. 14 days after planting and treating, greenhouse
Outline: as §6

ECHCG [9] = test: Pre-emergence herbicidal activity on ECHCG (barnyardgrass); type: in vivo, Echinochloa crus-galli; conditions: lowest tested rate giving 80% or greater inhibition, approx. 14 days after planting and treating, greenhouse
Outline: as §6

PANMI [10] = test: Pre-emergence herbicidal activity on PANMI (wild proso millet); type: in vivo, Panicum miliaceum; conditions: lowest tested rate giving 80% or greater inhibition, approx. 14 days after planting and treating, greenhouse
Outline: as §6

SORHA [11] = test: Pre-emergence herbicidal activity on SORHA (johnsongrass, seedling); type: in vivo, Sorghum halepense; conditions: lowest tested rate giving 80% or greater inhibition, approx. 14 days after planting and treating, greenhouse
Outline: as §6

SETFA [12] = test: Pre-emergence herbicidal activity on SETFA (giant foxtail); type: in vivo, Setaria faberi; conditions: lowest tested rate giving 80% or greater inhibition, approx. 14 days after planting and treating, greenhouse
Outline: as §6

PANDI [13] = test: Pre-emergence herbicidal activity on PANDI (fall panicum); type: in vivo, Panicum dichotomiflorum; conditions: lowest tested rate giving 80% or greater inhibition, approx. 14 days after planting and treating, greenhouse
Outline: as §6

SORVU [14] = test: Pre-emergence herbicidal activity on SORVU (shattercane); type: in vivo, Sorghum vulgare; conditions: lowest tested rate giving 80% or greater inhibition, approx. 14 days after planting and treating, greenhouse
Text: as §1
The pre-emergence tests were conducted by the following procedure. Topsoil was sieved to pass through a 1.27 cm screen. Fertilizer was added to the topsoil and the mixture was then sterilized by heating. The topsoil mixture was placed in a pot and compacted to a depth of 1.0 to 1.25 cm from the top of the pot. Seeds of each of several monocotyledonous and dicotyledonous annual plant species were placed on top of the soil. Additional soil was subsequently placed over the seeds to level-fill the pot. A known amount of each test compound dissolved or suspended in an appropriate organic solvent was diluted with a 50:50 mix of acetone and water and applied to the surface of the soil. After treatment the plants were placed in a greenhouse with a 30/21° C. day/night temperature regime where they received 0.64 cm of overhead irrigation. All subsequent watering consisted of a light overhead mist and/or subirrigation as needed for germination and growth.
Approximately 14 days after planting and treating, the plants were observed and herbicidal efficacy recorded as percent inhibition by comparison with untreated plants.
The plant species usually regarded as weeds which were utilized in the tests are identified in the tables below according to the following legend, in which “d” indicates a dicotyledonous species and “m” a monocotyledonous species. All monocotyledonous species included in the tests herein are grasses.

BRAPP [15] = test: Pre-emergence herbicidal activity on BRAPP (broadleaf signalgrass); type: in vivo, Brachiaria platyphylla; conditions: lowest tested rate giving 80% or greater inhibition, approx. 14 days after planting and treating, greenhouse
Outline: as §6

DIGSA [16] = test: Pre-emergence herbicidal activity on DIGSA (large crabgrass); type: in vivo, Digitaria sanguinalis; conditions: lowest tested rate giving 80% or greater inhibition, approx. 14 days after planting and treating, greenhouse
Outline: as §6

| Compound | Pre-emergence activity (GR80) on ABUTH (ABUTH) [g/ha] | Pre-emergence activity (GR80) on SOLNI (SOLNI) [g/ha] | Pre-emergence activity (GR80) on AMARE (AMARE) [g/ha] | Pre-emergence activity (GR80) on DATST (DATST) [g/ha] | Pre-emergence activity (GR80) on CHEAL (CHEAL) [g/ha] | Pre-emergence activity (GR80) on CONAR (CONAR) | Pre-emergence activity (GR80) on PORAL (POROL) [g/ha] | Pre-emergence activity (GR80) on CIRAR (CIRAR) [g/ha] | Pre-emergence activity (GR80) on ECHCG (ECHCG [9]) | Pre-emergence activity (GR80) on PANMI (PANMI [10]) [g/ha] | Pre-emergence activity (GR80) on SORHA (SORHA [11]) | Pre-emergence activity (GR80) on SETFA (SETFA [12]) [g/ha] | Pre-emergence activity (GR80) on PANDI (PANDI [13]) [g/ha] | Pre-emergence activity (GR80) on SORVU (SORVU [14]) | Pre-emergence activity (GR80) on BRAPP (BRAPP [15]) | Pre-emergence activity (GR80) on DIGSA (DIGSA [16]) [g/ha] | further results |
| --- | --- | --- | --- | --- | --- | --- | --- | --- | --- | --- | --- | --- | --- | --- | --- | --- | --- |
| CC(CNC(=O)c1cccc(C(F)(F)F)c1)NC(=O)c1ccc(C(F)(F)F)c(F)c1 (stereo not shown) [Example 24] |  |  |  |  |  |  |  |  |  |  |  |  |  |  |  |  | Post-emergence activity (GR80) ECHCG (ECHCG [1]): phyto; Post-emergence activity (GR80) PANMI (PANMI [2]): phyto; Post-emergence activity (GR80) SORHA (SORHA [3]): [empty]; Post-emergence activity (GR80) SETFA (SETFA [4]): [empty]; Post-emergence activity (GR80) PANDI (PANDI [5]): phyto; Post-emergence activity (GR80) SORVU (SORVU [6]): phyto; Post-emergence activity (GR80) BRAPP (BRAPP [7]): phyto; Post-emergence activity (GR80) DIGSA (DIGSA [8]): phyto |
| CC(CNC(=O)c1cccc(C(F)(F)F)c1)NC(=O)c1ccccc1Cl (stereo not shown) [Example 103] | 750 | 250 | 125 | 500 | 500 | * (Where herbicidal activity was evident but 80% inhibition was not achieved at the highest rate tested (typically 1000 g/ha), an asterisk (*) is shown) | 125 | 750 | phyto | 1000 | 500 g/ha | 500 | 500 | phyto | 750 g/ha | 500 |  |
| Cc1c(Cl)cccc1C(=O)NC(C)CNC(=O)c1cccc(C(F)(F)F)c1F (stereo not shown) [Example 150] | 1000 | 64 | 32 | 32 | 32 | 125 g/ha | 32 | 125 | * (Where herbicidal activity was evident but 80% inhibition was not achieved at the highest rate tested (typically 1000 g/ha), an asterisk (*) is shown) | 64 | * (Where herbicidal activity was evident but 80% inhibition was not achieved at the highest rate tested (typically 1000 g/ha), an asterisk (*) is shown) | 125 | 125 | phyto | * (Where herbicidal activity was evident but 80% inhibition was not achieved at the highest rate tested (typically 1000 g/ha), an asterisk (*) is shown) | 32 |  |
